Our source for the residual activity values is the kinase profiling compilation of Christmann-Franck et al. (2016).

DSTYK (human), sequence (Q6XUX3 whole entry, looked up): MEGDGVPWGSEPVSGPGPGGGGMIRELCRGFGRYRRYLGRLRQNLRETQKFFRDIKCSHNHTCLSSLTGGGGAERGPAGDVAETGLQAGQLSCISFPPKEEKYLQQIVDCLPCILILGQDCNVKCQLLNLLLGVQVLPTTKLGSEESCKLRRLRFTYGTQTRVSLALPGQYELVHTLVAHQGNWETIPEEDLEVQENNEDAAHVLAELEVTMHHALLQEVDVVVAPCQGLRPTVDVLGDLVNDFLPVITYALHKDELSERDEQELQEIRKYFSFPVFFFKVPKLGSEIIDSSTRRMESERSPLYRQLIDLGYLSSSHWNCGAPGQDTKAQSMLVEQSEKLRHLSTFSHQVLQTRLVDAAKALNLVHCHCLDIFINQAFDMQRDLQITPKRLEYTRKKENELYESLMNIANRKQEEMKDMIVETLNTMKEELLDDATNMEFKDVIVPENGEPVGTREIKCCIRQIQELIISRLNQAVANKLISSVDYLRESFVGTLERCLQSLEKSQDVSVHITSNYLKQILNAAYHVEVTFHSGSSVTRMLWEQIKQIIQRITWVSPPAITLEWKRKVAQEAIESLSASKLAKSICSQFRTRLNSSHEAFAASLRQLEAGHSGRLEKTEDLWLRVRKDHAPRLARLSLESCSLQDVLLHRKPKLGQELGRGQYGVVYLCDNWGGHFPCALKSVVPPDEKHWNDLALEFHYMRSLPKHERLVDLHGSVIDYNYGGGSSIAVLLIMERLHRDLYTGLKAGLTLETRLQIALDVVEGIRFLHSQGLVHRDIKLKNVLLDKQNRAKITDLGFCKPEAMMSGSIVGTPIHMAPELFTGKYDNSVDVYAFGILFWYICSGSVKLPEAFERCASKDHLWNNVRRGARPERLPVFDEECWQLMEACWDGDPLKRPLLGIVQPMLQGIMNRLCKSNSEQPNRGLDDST

One test has as its target DSTYK (human) (UniProt Q6XUX3). Put plainly: radiometric filter-binding kinase assay, Kinase HotSpot. As to conditions: compound 0.5 µM; ATP 10 µM.
As a reminder, the residual activity is the signal under treatment as a percentage of the control signal. With `Cc1ccc(S(=O)(=O)/C=C/C#N)cc1`, the residual activity came to 97.8%.

`CCN(CC)C(=O)c1ccc(Nc2nc(OCC3CCCCC3)c3nc[nH]c3n2)cc1`: the residual activity was 106%.

In the case of `O=C(Nc1cccc(Nc2nccc(Nc3cccc(C(F)(F)F)c3)n2)c1)C1CC1`, the residual activity worked out at 93.8%.

The next test deals with ABL2 (human) (UniProt P42684). The description is as above. The following applies: compound 0.5 µM; ATP 10 µM.
ABL2 (human), sequence (P42684 whole entry, looked up): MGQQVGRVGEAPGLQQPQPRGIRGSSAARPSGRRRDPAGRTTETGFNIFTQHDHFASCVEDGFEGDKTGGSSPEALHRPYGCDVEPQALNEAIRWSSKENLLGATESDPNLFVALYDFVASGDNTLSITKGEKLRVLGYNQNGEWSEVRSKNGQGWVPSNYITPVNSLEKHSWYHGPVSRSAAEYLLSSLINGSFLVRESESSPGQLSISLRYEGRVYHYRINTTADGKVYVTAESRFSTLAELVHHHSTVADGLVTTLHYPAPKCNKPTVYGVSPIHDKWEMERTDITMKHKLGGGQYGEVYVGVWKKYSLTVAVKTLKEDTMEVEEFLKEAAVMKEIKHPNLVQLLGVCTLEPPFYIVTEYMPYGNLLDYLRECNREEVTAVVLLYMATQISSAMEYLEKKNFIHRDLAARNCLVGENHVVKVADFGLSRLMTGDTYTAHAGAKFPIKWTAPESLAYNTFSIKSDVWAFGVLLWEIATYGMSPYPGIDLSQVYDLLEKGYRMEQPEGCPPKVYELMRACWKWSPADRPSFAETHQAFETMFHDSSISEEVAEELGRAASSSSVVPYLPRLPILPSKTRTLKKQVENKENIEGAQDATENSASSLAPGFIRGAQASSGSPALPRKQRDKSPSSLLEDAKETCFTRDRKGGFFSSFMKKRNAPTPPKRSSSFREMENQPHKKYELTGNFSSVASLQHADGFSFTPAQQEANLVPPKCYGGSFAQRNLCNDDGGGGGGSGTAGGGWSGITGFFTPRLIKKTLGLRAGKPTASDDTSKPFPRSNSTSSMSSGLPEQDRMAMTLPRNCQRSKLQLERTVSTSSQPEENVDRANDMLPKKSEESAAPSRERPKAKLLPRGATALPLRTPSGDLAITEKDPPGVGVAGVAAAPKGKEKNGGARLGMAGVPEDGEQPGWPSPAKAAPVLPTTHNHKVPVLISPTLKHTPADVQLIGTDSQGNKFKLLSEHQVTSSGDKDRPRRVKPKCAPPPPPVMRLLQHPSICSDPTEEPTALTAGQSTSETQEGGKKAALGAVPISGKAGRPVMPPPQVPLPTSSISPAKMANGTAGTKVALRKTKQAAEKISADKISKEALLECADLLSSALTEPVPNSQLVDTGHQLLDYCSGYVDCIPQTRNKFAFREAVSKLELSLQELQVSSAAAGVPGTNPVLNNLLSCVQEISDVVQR
As for `Cc1ccc(S(=O)(=O)/C=C/C#N)cc1`, the residual activity was determined as 104%.

With `CCN(CC)C(=O)c1ccc(Nc2nc(OCC3CCCCC3)c3nc[nH]c3n2)cc1`, the residual activity turned out to be 67.8%.

As to `O=C(Nc1cccc(Nc2nccc(Nc3cccc(C(F)(F)F)c3)n2)c1)C1CC1`, the residual activity came out at 83.8%.

For a further test, the target named is DYRK2 (human) (UniProt Q92630). The test is described as above. As to conditions: compound 0.5 µM; ATP 10 µM.
For the compound `Cc1ccc(S(=O)(=O)/C=C/C#N)cc1`, the residual activity is 102%.

Turning to `CCN(CC)C(=O)c1ccc(Nc2nc(OCC3CCCCC3)c3nc[nH]c3n2)cc1`, the residual activity came out at 98.2%.

On to `O=C(Nc1cccc(Nc2nccc(Nc3cccc(C(F)(F)F)c3)n2)c1)C1CC1`, for which the residual activity was found to be 106%.

For another test, the target named is HIPK2 (human) (UniProt Q9H2X6). The description is as above. As to conditions: compound 0.5 µM; ATP 10 µM.
HIPK2 (human), sequence (Q9H2X6 whole entry, looked up): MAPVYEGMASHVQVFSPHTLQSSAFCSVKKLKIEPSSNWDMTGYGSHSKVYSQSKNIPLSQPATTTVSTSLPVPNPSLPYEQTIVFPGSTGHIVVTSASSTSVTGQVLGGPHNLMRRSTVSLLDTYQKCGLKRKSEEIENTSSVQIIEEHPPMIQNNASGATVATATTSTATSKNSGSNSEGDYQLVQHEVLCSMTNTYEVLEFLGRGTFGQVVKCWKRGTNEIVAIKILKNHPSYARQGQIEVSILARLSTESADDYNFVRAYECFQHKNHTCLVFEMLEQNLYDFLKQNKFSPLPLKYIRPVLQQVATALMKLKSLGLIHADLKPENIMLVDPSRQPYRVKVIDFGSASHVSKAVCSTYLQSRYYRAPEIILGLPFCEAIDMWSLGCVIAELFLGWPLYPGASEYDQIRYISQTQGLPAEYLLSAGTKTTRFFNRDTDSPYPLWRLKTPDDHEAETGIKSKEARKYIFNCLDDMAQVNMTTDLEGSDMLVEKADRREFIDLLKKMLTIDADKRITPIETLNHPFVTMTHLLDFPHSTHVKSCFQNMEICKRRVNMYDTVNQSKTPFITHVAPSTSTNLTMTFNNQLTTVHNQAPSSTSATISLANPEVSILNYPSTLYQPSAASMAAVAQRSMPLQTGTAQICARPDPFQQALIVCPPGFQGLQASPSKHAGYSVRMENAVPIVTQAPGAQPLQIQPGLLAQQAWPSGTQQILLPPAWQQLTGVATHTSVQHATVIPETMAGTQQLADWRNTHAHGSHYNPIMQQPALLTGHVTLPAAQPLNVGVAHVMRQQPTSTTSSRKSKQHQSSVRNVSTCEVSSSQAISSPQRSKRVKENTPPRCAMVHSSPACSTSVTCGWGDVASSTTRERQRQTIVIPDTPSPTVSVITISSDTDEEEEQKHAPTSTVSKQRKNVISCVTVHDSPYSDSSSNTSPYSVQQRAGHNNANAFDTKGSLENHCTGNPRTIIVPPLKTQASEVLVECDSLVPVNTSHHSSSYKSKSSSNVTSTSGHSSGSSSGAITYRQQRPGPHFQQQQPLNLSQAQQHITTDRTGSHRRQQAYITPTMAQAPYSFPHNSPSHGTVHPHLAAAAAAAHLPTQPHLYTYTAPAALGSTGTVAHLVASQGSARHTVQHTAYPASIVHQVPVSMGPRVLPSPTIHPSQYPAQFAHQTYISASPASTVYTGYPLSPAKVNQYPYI
Take `Cc1ccc(S(=O)(=O)/C=C/C#N)cc1`: the residual activity is 83.9%.

Turning to `CCN(CC)C(=O)c1ccc(Nc2nc(OCC3CCCCC3)c3nc[nH]c3n2)cc1`, the residual activity was found to be 92.4%.

In the case of `O=C(Nc1cccc(Nc2nccc(Nc3cccc(C(F)(F)F)c3)n2)c1)C1CC1`, the residual activity came to 103%.

The target of the next test is RPS6KB2 (human) (UniProt Q9UBS0). Described as above. The following applies: compound 0.5 µM; ATP 10 µM.
As to `Cc1ccc(S(=O)(=O)/C=C/C#N)cc1`, the residual activity worked out at 109%.

For `CCN(CC)C(=O)c1ccc(Nc2nc(OCC3CCCCC3)c3nc[nH]c3n2)cc1`, the residual activity was found to be 102%.

As for `O=C(Nc1cccc(Nc2nccc(Nc3cccc(C(F)(F)F)c3)n2)c1)C1CC1`, the residual activity worked out at 96%.

The target in a further test is ACVR1 (human) (UniProt Q04771). Described as above. As to conditions: compound 0.5 µM; ATP 10 µM.
For `Cc1ccc(S(=O)(=O)/C=C/C#N)cc1`, the residual activity turned out to be 101%.

Turning to `CCN(CC)C(=O)c1ccc(Nc2nc(OCC3CCCCC3)c3nc[nH]c3n2)cc1`, the residual activity is 98.8%.

Take `O=C(Nc1cccc(Nc2nccc(Nc3cccc(C(F)(F)F)c3)n2)c1)C1CC1`: the residual activity turned out to be 111%.

The target in the next test is EPHA8 (human) (UniProt P29322). The description is as above. As to conditions: compound 0.5 µM; ATP 10 µM.
For `Cc1ccc(S(=O)(=O)/C=C/C#N)cc1`, the residual activity was determined as 96.8%.

As for `CCN(CC)C(=O)c1ccc(Nc2nc(OCC3CCCCC3)c3nc[nH]c3n2)cc1`, the residual activity is 92.1%.

Turning to `O=C(Nc1cccc(Nc2nccc(Nc3cccc(C(F)(F)F)c3)n2)c1)C1CC1`, the residual activity came out at 96.3%.

Another test deals with BRSK2 (human) (UniProt Q8IWQ3). Described as above. As to conditions: compound 0.5 µM; ATP 10 µM.
`Cc1ccc(S(=O)(=O)/C=C/C#N)cc1`: the residual activity came out at 99.4%.

Consider `CCN(CC)C(=O)c1ccc(Nc2nc(OCC3CCCCC3)c3nc[nH]c3n2)cc1`, for which the residual activity came out at 82.5%.

Consider `O=C(Nc1cccc(Nc2nccc(Nc3cccc(C(F)(F)F)c3)n2)c1)C1CC1`, for which the residual activity is 89.3%.

A further test addresses FGR (human) (UniProt P09769). The test is described as above. As to conditions: compound 0.5 µM; ATP 10 µM.
On to `Cc1ccc(S(=O)(=O)/C=C/C#N)cc1`, for which the residual activity stood at 100%.

With `CCN(CC)C(=O)c1ccc(Nc2nc(OCC3CCCCC3)c3nc[nH]c3n2)cc1`, the residual activity was 54.2%.

Consider `O=C(Nc1cccc(Nc2nccc(Nc3cccc(C(F)(F)F)c3)n2)c1)C1CC1`, for which the residual activity was found to be 80.9%.

The next test addresses NUAK2 (human) (UniProt Q9H093). The description is as above. The following applies: compound 0.5 µM; ATP 10 µM.
As for `Cc1ccc(S(=O)(=O)/C=C/C#N)cc1`, the residual activity was 88.4%.

For the compound `CCN(CC)C(=O)c1ccc(Nc2nc(OCC3CCCCC3)c3nc[nH]c3n2)cc1`, the residual activity was determined as 23.1%.

For the compound `O=C(Nc1cccc(Nc2nccc(Nc3cccc(C(F)(F)F)c3)n2)c1)C1CC1`, the residual activity was 94.3%.

The next test has as its target NEK11 (human) (UniProt Q8NG66). The description is as above. As to conditions: compound 0.5 µM; ATP 10 µM.
With `Cc1ccc(S(=O)(=O)/C=C/C#N)cc1`, the residual activity was found to be 95.8%.

Consider `CCN(CC)C(=O)c1ccc(Nc2nc(OCC3CCCCC3)c3nc[nH]c3n2)cc1`, for which the residual activity is 132%.

Turning to `O=C(Nc1cccc(Nc2nccc(Nc3cccc(C(F)(F)F)c3)n2)c1)C1CC1`, the residual activity turned out to be 102%.

In a further test the target is FER (human) (UniProt P16591). The description is as above. The following applies: compound 0.5 µM; ATP 10 µM.
`Cc1ccc(S(=O)(=O)/C=C/C#N)cc1`: the residual activity turned out to be 104%.

For `CCN(CC)C(=O)c1ccc(Nc2nc(OCC3CCCCC3)c3nc[nH]c3n2)cc1`, the residual activity is 42%.

As to `O=C(Nc1cccc(Nc2nccc(Nc3cccc(C(F)(F)F)c3)n2)c1)C1CC1`, the residual activity amounted to 93%.

For a further test, the target named is CDK9 CCNK (human) (UniProt O75909+P50750). The test is described as above. The following applies: compound 0.5 µM; ATP 10 µM.
Turning to `Cc1ccc(S(=O)(=O)/C=C/C#N)cc1`, the residual activity was found to be 112%.

Take `CCN(CC)C(=O)c1ccc(Nc2nc(OCC3CCCCC3)c3nc[nH]c3n2)cc1`: the residual activity came out at 72.6%.

`O=C(Nc1cccc(Nc2nccc(Nc3cccc(C(F)(F)F)c3)n2)c1)C1CC1`: the residual activity was 107%.

The target in another test is EPHB1 (human) (UniProt P54762). The description is as above. As to conditions: compound 0.5 µM; ATP 10 µM.
`Cc1ccc(S(=O)(=O)/C=C/C#N)cc1`: the residual activity came out at 100%.

`CCN(CC)C(=O)c1ccc(Nc2nc(OCC3CCCCC3)c3nc[nH]c3n2)cc1`: the residual activity came out at 75.4%.

In the case of `O=C(Nc1cccc(Nc2nccc(Nc3cccc(C(F)(F)F)c3)n2)c1)C1CC1`, the residual activity came to 85.6%.

For another test, the target named is MARK4 (human) (UniProt Q96L34). The description is as above. The following applies: compound 0.5 µM; ATP 10 µM.
Regarding `Cc1ccc(S(=O)(=O)/C=C/C#N)cc1`, the residual activity was 99%.

With `CCN(CC)C(=O)c1ccc(Nc2nc(OCC3CCCCC3)c3nc[nH]c3n2)cc1`, the residual activity came to 93.8%.

`O=C(Nc1cccc(Nc2nccc(Nc3cccc(C(F)(F)F)c3)n2)c1)C1CC1`: the residual activity turned out to be 108%.

Another test deals with TAOK2 (human) (UniProt Q9UL54). Described as above. The following applies: compound 0.5 µM; ATP 10 µM.
Turning to `Cc1ccc(S(=O)(=O)/C=C/C#N)cc1`, the residual activity came to 89.7%.

With `CCN(CC)C(=O)c1ccc(Nc2nc(OCC3CCCCC3)c3nc[nH]c3n2)cc1`, the residual activity turned out to be 66%.

On to `O=C(Nc1cccc(Nc2nccc(Nc3cccc(C(F)(F)F)c3)n2)c1)C1CC1`, for which the residual activity was 92.4%.

Another test concerns the target MAP3K10 (human) (UniProt Q02779). The description is as above. The following applies: compound 0.5 µM; ATP 10 µM.
Consider `Cc1ccc(S(=O)(=O)/C=C/C#N)cc1`, for which the residual activity came out at 105%.

On to `CCN(CC)C(=O)c1ccc(Nc2nc(OCC3CCCCC3)c3nc[nH]c3n2)cc1`, for which the residual activity stood at 15.2%.

With `O=C(Nc1cccc(Nc2nccc(Nc3cccc(C(F)(F)F)c3)n2)c1)C1CC1`, the residual activity came out at 96.4%.

The target in another test is PAK7 (human) (UniProt Q9P286). The test is described as above. The following applies: compound 0.5 µM; ATP 10 µM.
Consider `Cc1ccc(S(=O)(=O)/C=C/C#N)cc1`, for which the residual activity was found to be 100%.

With `CCN(CC)C(=O)c1ccc(Nc2nc(OCC3CCCCC3)c3nc[nH]c3n2)cc1`, the residual activity stood at 49.1%.

On to `O=C(Nc1cccc(Nc2nccc(Nc3cccc(C(F)(F)F)c3)n2)c1)C1CC1`, for which the residual activity amounted to 89.2%.

The target of another test is INSR (human) (UniProt P06213). The description is as above. The following applies: compound 0.5 µM; ATP 10 µM.
INSR (human), sequence (P06213 whole entry, looked up): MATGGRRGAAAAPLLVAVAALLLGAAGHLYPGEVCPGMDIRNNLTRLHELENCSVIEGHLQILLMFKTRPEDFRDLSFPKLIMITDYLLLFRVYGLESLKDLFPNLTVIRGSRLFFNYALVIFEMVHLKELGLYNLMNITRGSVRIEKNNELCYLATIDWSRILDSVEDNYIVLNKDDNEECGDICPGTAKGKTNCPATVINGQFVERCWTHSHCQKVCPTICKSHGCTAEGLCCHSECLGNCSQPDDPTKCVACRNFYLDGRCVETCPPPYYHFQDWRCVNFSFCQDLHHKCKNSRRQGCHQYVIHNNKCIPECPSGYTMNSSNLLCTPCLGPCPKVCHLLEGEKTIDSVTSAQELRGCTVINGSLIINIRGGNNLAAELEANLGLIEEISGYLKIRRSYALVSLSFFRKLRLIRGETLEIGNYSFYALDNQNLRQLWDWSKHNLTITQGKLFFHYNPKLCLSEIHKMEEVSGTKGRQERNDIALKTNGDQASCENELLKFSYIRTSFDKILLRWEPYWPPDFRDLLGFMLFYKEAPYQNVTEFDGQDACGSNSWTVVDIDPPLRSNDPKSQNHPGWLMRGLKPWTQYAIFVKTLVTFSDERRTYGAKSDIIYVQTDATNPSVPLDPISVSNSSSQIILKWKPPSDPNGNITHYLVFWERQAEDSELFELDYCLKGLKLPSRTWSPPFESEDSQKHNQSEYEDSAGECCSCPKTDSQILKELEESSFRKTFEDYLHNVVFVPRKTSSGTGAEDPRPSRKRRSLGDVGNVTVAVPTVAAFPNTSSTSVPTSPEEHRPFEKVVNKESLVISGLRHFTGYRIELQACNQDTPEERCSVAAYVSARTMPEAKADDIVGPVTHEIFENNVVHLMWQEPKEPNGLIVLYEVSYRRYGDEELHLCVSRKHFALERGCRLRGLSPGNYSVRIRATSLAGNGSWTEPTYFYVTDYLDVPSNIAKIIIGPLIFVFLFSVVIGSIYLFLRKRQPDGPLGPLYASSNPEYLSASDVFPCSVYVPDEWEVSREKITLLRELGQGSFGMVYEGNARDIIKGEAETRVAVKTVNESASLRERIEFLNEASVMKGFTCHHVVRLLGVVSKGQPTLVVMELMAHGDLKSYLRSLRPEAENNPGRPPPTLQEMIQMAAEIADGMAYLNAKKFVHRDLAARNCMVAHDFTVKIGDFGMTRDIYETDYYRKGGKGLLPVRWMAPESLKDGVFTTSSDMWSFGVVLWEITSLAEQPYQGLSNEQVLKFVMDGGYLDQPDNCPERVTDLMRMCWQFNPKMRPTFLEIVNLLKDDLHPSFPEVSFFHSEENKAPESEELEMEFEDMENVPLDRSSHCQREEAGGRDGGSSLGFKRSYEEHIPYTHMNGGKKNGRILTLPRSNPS
For the compound `Cc1ccc(S(=O)(=O)/C=C/C#N)cc1`, the residual activity was 108%.

With `CCN(CC)C(=O)c1ccc(Nc2nc(OCC3CCCCC3)c3nc[nH]c3n2)cc1`, the residual activity turned out to be 92.8%.

On to `O=C(Nc1cccc(Nc2nccc(Nc3cccc(C(F)(F)F)c3)n2)c1)C1CC1`, for which the residual activity turned out to be 89.8%.

For the next test, the target named is TGFBR1 (human) (UniProt P36897). Described as above. The following applies: compound 0.5 µM; ATP 10 µM.
In the case of `Cc1ccc(S(=O)(=O)/C=C/C#N)cc1`, the residual activity amounted to 103%.

Consider `CCN(CC)C(=O)c1ccc(Nc2nc(OCC3CCCCC3)c3nc[nH]c3n2)cc1`, for which the residual activity was 100%.

Regarding `O=C(Nc1cccc(Nc2nccc(Nc3cccc(C(F)(F)F)c3)n2)c1)C1CC1`, the residual activity was determined as 102%.

The target in the next test is MAPK13 (human) (UniProt O15264). The test is described as above. As to conditions: compound 0.5 µM; ATP 10 µM.
MAPK13 (human), sequence (O15264 whole entry, looked up): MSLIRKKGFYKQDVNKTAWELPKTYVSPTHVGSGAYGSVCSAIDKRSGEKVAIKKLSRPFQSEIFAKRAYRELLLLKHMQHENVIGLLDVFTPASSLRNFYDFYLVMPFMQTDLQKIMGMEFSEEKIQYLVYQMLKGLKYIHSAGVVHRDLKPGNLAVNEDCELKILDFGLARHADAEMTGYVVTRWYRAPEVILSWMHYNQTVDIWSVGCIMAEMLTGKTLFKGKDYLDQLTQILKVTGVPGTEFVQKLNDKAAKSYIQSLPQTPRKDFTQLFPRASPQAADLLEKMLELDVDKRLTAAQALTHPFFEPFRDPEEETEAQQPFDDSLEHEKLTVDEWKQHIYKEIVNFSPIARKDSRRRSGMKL
`Cc1ccc(S(=O)(=O)/C=C/C#N)cc1`: the residual activity worked out at 92.2%.
